Measurements: patent US7825111B2, “Substituted spiroheterocycles” (Janssen Pharmaceutica NV, priority 2006, dated 2010)

Columns and labels:
[1] = molecular target: T1, human V1a receptor (Homo sapiens, UniProt P37288); assay: V1a vasopressin receptor functional activity (calcium mobilization, FLIPR, V1a-HEK cells); format: cell-based; conditions: inhibition of vasopressin-induced intracellular calcium mobilization in V1a-HEK cells
Procedure: The V1a receptor is a G-protein coupled receptor, which upon activation triggers an increase in intracellular calcium mobilization. To evaluate compounds for their functional V1a receptor activity, HEK-293 cells were transfected with the human V1a receptor (V1a-HEK cells). HEK-293 cells were grown in DMEM (Dulbecco's modified Eagle Media) supplemented with 10% FBS and glutamine. HEK-cells were passed biweekly by trypsinization and seeded into 96 well plates at 33,000 cells per well. HEK-293 cells were transfected with human V1a receptor DNA using DMRIE-C reagent from Life Technologies (Carlsbad, Calif.). Stable lines were generated by selecting cells grown in culture media containing geneticin. After growing in Packard Clear-View black 96 well plates for 4-6 days, V1a-HEK cells were loaded with the calcium-sensitive fluorescence dye, FLUO-3 AM. Changes in intracellular calcium mobilization were measured by quantitating intracellular fluorescence using FLIPR (Fluorometric Imaging Plate Reader; Molecular Devices, Sunnyvale, Calif.). Test compounds were first added to the cells and the resulting changes in fluorescence measured to detect receptor agonistic activity. Five minutes later the cells were challenged with vasopressin to test compounds for their antagonistic activity. Receptor antagonists inhibit the ability of vasopressin to stimulate increases in intracellular fluorescence. IC50's were calculated.

[2] = molecular target: T2, human V2 receptor (Homo sapiens, UniProt P30518); assay: In-vitro binding assay, 3H-arginine-8-vasopressin, V2 membranes; conditions: membrane containing human V2 receptor; for inhibition at 0.2 µM: read-out: V2 (binding) Percent inhibition at 0.2 μM; for IC50: 3H-vasopressin 0.65-0.75 nM
T2 sequence (P30518 whole entry): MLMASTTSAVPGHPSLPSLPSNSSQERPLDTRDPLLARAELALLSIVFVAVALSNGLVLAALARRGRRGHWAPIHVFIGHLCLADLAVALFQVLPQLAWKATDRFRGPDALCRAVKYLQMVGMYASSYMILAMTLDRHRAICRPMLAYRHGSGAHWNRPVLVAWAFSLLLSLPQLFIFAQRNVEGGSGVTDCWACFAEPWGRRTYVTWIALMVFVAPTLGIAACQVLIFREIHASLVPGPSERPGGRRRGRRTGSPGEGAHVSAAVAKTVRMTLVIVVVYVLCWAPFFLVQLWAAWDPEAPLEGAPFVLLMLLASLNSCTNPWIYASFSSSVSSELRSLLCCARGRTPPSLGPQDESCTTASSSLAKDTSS
Procedure: (§1) Assay buffer is 50 mM Tris-Cl, 5 mM MgCl2, 0.1% BSA (pH 7.5) containing 5 μg/ml of aprotinin, leupeptin, pepstatin, 50 μg/ml bacitracin, and 1 mM Pefabloc (4-(2-Aminoethyl)-benzenesulfonyl fluoride, hydrochloride manufactured by Roche Diagnostics Corporation, Indianapolis, Ind. and distributed by Boehringer Mannheim). H3 vasopressin is ^3H-arginine-8-vasopressin (NEN Life Sciences, Boston, Mass.; 68.5 Ci/mmol, final concentration in assay is 0.65-0.75 nM). Into wells of 96-well round bottom polypropylene plates are added buffer, test compound, membrane (containing human V1a or V2 receptor), and H3 vasopressin. The reaction plates are allowed to sit at room temperature for one hour. The samples are filtered through Unifilter GF/C plates (PerkinElmer Life Sciences, Boston, Mass.) presoaked in 0.3 polyethyleneimine. The plates are washed 5 times with cold physiological saline containing 0.05% Tween 20. After drying, the bottom of the filter plates are sealed and 0.025 ml of Microscint-20 (Packard Instrument Co, Meriden, Conn.) is added to each filter. The top of the plate is sealed, and the plate is counted. Non-specific binding is determined by the addition of 1.25 μM arginine-8-vasopressin in those wells. % Inh. is calculated as follows: % inhibition=100−100×peak response after drug/peak response before drug

[3] = molecular target: T2, human V2 receptor; assay: V2 vasopressin receptor functional activity (cAMP accumulation, V2-HEK cells); format: cell-based; design: expressed in transfected cells; host or cells: HEK-293; conditions: inhibition of vasopressin-stimulated cAMP accumulation in V2-HEK cells
Procedure: The V2 receptor is also a G-protein coupled receptor which when activated induces an increase in cAMP turnover. Antagonism against the V2 receptor is determined by measuring cAMP accumulation in transfected HEK-293 cells expressing the human V-2 receptor (V2-HEK cells). Compounds are tested for their ability to block the stimulatory effects of vasopressin on cAMP accumulation. The cell content of cAMP is measured by radioimmunoassay using NEN flashplates.

[4] = molecular target: T1, human V1a receptor; assay: In-vitro binding assay, 3H-arginine-8-vasopressin, V1a membranes; conditions: membrane containing human V1a receptor; for IC50: 3H-vasopressin 0.65-0.75 nM; for inhibition at 0.2 µM: read-out: V1a (binding) Percent inhibition at 0.2 μM
Procedure: as §1

T1 sequence (P37288 whole entry): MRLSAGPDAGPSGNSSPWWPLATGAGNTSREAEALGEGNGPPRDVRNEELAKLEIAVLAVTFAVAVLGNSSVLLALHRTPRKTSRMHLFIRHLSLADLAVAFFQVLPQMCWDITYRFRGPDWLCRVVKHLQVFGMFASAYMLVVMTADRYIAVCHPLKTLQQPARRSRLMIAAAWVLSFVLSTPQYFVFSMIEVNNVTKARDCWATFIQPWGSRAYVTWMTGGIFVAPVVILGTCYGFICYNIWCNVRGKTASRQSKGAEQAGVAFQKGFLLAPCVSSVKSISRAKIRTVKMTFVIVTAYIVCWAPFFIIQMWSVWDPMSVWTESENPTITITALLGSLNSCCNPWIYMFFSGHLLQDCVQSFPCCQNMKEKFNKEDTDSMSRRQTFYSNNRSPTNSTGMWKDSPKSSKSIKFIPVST

Row | IC50 [1] [µM] | inhibition at 0.2 µM [2] [%] | IC50 [3] [µM] | IC50 [4] [nM] | IC50 [2] [nM] | inhibition at 0.2 µM [4] [%] | Compound
1 | 0.05 | 63 | 0.49 | 9 |  |  | O=C(Nc1ccc(C(=O)N2CCC3(CCCNC3=O)Cc3ccccc32)cc1)c1cc(F)ccc1Cl (stereo not shown) [Compound 7, Benzamide, 2-chloro-N-[4-{(2,3-dihydro-2′-oxospiro[4H-1-benzazepine-4,3-piperidin}-1(5H)-yl)carbonyl}phenyl]-5-fluoro]
2 | 0.38 |  |  | 47 | 50 |  | CN1CCCC2(CCN(C(=O)c3ccc(NC(=O)c4ccccc4-c4ccccc4)cc3)c3ccccc3C2)C1=O (stereo not shown) [Compound 10, [1,1′-Biphenyl]-2-carboxamide, N-[4-[(2,3-dihydro-1′-methyl-2′-oxospiro{4H-1-benzazepine-4,3′-piperidin}-1(5H)-yl)carbonyl]phenyl}-]
3 | 0.05 |  | 0.132 | 56 | 61 |  | CCN1CCCC2(CCN(C(=O)c3ccc(NC(=O)c4ccccc4-c4ccccc4)cc3)c3ccccc3C2)C1=O (stereo not shown) [Compound 11, [1,1′-Biphenyl]-2-carboxamide, N-[4-[(2,3-dihydro-1′-ethyl-2′-oxospiro{4H-1-benzazepine-4,3′-piperidin}-1(5H)-yl)carbonyl]phenyl}-]
4 | 0.01 |  | 0.226 | 8 | 150 |  | O=C(Nc1ccc(C(=O)N2CCC3(CCNC3=O)Cc3ccccc32)cc1)c1cc(F)ccc1Cl (stereo not shown) [Compound 18, Benzamide, 2-chloro-N-[4-{(2,3-dihydro-2′-oxospiro[4H-1-benzazepine-4,3-pyrrolidin}-1(5H)-yl)carbonyl}phenyl]-5-fluoro]
5 | 0.08 |  | 0.437 | 43 | 37 |  | CN1CCC2(CCN(C(=O)c3ccc(NC(=O)c4ccccc4-c4ccccc4)cc3)c3ccccc3C2)C1=O (stereo not shown) [Compound 21, [1,1′-Biphenyl]-2-carboxamide, N-[4-[(2,3-dihydro-1′-methyl-2′-oxospiro{4H-1-benzazepine-4,3′-pyrrolidin}-1(5H)-yl)carbonyl]phenyl}-]
6 |  | 17 |  |  |  | 66 | CCOC(=O)CN1CCC2(CCN(C(=O)c3ccc(NC(=O)c4cc(F)ccc4Cl)cc3)c3ccccc3C2)C1=O (stereo not shown) [Compound 22, Spiro{4H-1-benzazepine-4,3′-pyrrolidin}-1′-acetic acid, 1-[{(2-chloro-5-fluorobenzoyl)amino}benzoyl]1,2,3,5-tetrahydro-2′-oxo, ethyl ester]
7 |  | 17 |  |  |  | 27 | O=C(O)CN1CCC2(CCN(C(=O)c3ccc(NC(=O)c4cc(F)ccc4Cl)cc3)c3ccccc3C2)C1=O (stereo not shown) [Compound 23, Spiro{4H-1-benzazepine-4,3′-pyrrolidin}-1′-acetic acid, 1-[{(2-chloro-5-fluorobenzoyl)amino}benzoyl]1,2,3,5-tetrahydro-2′-oxo-]
8 | 0.054 |  | 0.062 | 7 | 18 |  | O=C(Nc1ccc(C(=O)N2CCC3(CCNC3=O)Cc3ccccc32)cc1)c1ccccc1-c1ccccc1 (stereo not shown) [Compound 25, [1,1′-Biphenyl]-2-carboxamide, N-[4-[(2,3-dihydro-2′-oxospiro{4H-1-benzazepine-4,3′-pyrrolidin}-1(5H)-yl)carbonyl]phenyl}-]
9 |  |  |  | 160 | 230 |  | O=C(Nc1ccc(C(=O)N2CCC3(CCNC3=O)Cc3ccccc32)cc1)c1ccccc1F (stereo not shown) [Compound 26, Benzamide, 2-fluoro-N-[4-{(2,3-dihydro-2′-oxospiro[4H-1-benzazepine-4,3-pyrrolidin}-1(5H)-yl)carbonyl}phenyl]]
10 |  |  |  | 15 | 89 |  | Cc1ccc(F)cc1C(=O)Nc1ccc(C(=O)N2CCC3(CCNC3=O)Cc3ccccc32)cc1 (stereo not shown) [Compound 27, Spiro{4H-1-benzazepine-4,3′-pyrrolidin}-[{(2-methyl-5-fluorobenzoyl)amino}benzoyl]1,2,3,5-tetrahydro-2′-oxo-]
11 | 0.05 |  | 0.06 | 45 | 230 |  | O=C1CCCC2(CCN(C(=O)c3ccc(NC(=O)c4ccccc4-c4ccccc4)cc3)c3ccccc3C2)N1 (stereo not shown) [Compound 35, [1,1′-Biphenyl]-2-carboxamide, N-[4-[(2,3-dihydro-6′-oxospiro[4H-1-benzazepine-4,2′-piperidin]-1(5H)-yl)carbonyl]phenyl}-]
12 | 0.05 | 17 | > 3 | 27 |  |  | O=C(Nc1ccc(C(=O)N2CCC3(CCCNC3=O)Cc3ccccc32)cc1)c1ccccc1F (stereo not shown) [Compound 36, Benzamide, 2-fluoro-N-[4-{(2,3-dihydro-2′-oxospiro[4H-1-benzazepine-4,3-piperidin}-1(5H)-yl)carbonyl}phenyl]]
13 | 0.12 | 23 |  | 50 |  |  | O=C(Nc1ccc(C(=O)N2CCC3(CCCNC3=O)Cc3ccccc32)cc1)c1ccccc1 (stereo not shown) [Compound 37, Benzamide, N-[4-{(2,3-dihydro-2′-oxospiro[4H-1-benzazepine-4,3-piperidin}-1(5H)-yl)carbonyl}phenyl]]
14 | 0.13 |  | 0.036 |  | 93 | 64 | Cc1ccc(F)cc1C(=O)Nc1ccc(C(=O)N2CCC3(CCNC3=O)Cc3ccccc32)cn1 (stereo not shown) [Compound 38, Spiro{4H-1-benzazepine-4,3′-pyrrolidin}-[{(2-methyl-5-fluorobenzoyl)amino}nicotinoyl]1,2,3,5-tetrahydro-2′-oxo-]
15 | 0.07 |  |  |  | 8 | 58 | COc1cc(C(=O)N2CCC3(CCN(C)C3=O)Cc3ccccc32)ccc1NC(=O)c1cc(F)ccc1Cl (stereo not shown) [Compound 39]
